Measurements from patent US10814115B2, “Microneedle devices and uses thereof” (MASSACHUSETTS INSTITUTE OF TECHNOLOGY, priority 2011, dated 2020).
Read-outs that look alike come from different tables or passages of the source.

Assays:
[1] = cited from earlier work
[2] = Visualization study: dye injection into 1.5% porcine gelatin with the microneedle prototype device; conditions: 0.025% dye
Protocol: Using porcine gelatin, the effects of a microneedle prototype device was evaluated. Specifically, porcine gelatin was prepared at a concentration of 1.5% to mimic the density of gastrointestinal tissue. The gelatin provided the added benefit of allowing the application site to be visualized. A prototype device filled with a solution of 0.025% allura red dye was applied to the gel and a volume of 100-300 microliters of dye was injected. A second device lacking the needles was also used as a control.
This highlights the efficacy of the microneedle device in deeper tissue penetration of the model drug compared to simple diffusion (simulated by the control device shown in FIGS. 10 A and B).

[3] = system: Yorkshire swine
Protocol: Yorkshire swine approximately 70 kg in weight were fasted overnight. The animal was sedated and a femoral venous catheter placed to enable frequent blood sampling for glucose monitoring. An endoscope was introduced orally or rectally depending on the tissue being accessed. Oral access for the stomach and small intestine and rectal access for the colon.
Glucose levels were monitored by frequent blood sampling via the femoral venous catheter with the aid of a glucometer.
This was administered with the use of a Carr-Locke needle which is 500 μm in length and 514 μm in diameter. Frequent blood glucose monitoring was performed via the use of a central line (femoral venous catheter).
To further validate the delivery of biologics at different segment we further evaluated the use of microinjection in the duodenum (the first part of the small intestine). Here the pH ranges from 5.5-7 and there are a broader range of proteases.
This was again administered with the use of the Carr-Locke needle. Frequent blood glucose monitoring was performed via the use of a central line (femoral venous catheter).
This was administered with the use of the microneedle prototype shown previously. Frequent blood glucose monitoring was performed via the use of a central line (femoral venous catheter).

[4] = system: Yorkshire swine; conditions: 100 units in 10 ml saline enema
Description: In order to evaluate the efficacy of abrasion and drug delivery a Yorkshire swine animal 70 kg in weight was fasted overnight. The animal was sedated and a central venous line was placed for frequent blood sampling. The rectum was cleansed with a tap water enema and an abrasion created in the rectal mucosa.

For `CCCC1O[C@@H]2C[C@H]3[C@@H]4CCC5=CC(=O)C=C[C@]5(C)[C@H]4[C@@H](O)C[C@]3(C)[C@]2(C(=O)CO)O1` (some centres unmarked) [Budesonide], the “Known Toxic Levels” value ([1]; in vivo) is given as 3200 mg/kg.
In the case of `CC[C@H](C)[C@@H]1NC(=O)[C@H](Cc2ccc(O)cc2)NC(=O)[C@@H](N)CSSC[C@@H](C(=O)N2CCC[C@H]2C(=O)N[C@@H](CC(C)C)C(=O)NCC(N)=O)NC(=O)[C@H](CC(N)=O)NC(=O)[C@H](CCC(N)=O)NC1=O` [Oxytocin], the “Known Toxic Levels” value ([1]; in vivo) is listed as >10,000 units/kg.
For `CC[C@H](C)[C@H](NC(=O)[C@@H]1CCCN1C(=O)CNC(=O)[C@H](Cc1ccccc1)NC(=O)[C@H](CC(N)=O)NC(=O)[C@H](CC(N)=O)NC(=O)[C@H](CO)NC(=O)[C@H](CO)NC(=O)[C@H](Cc1c[nH]cn1)NC(=O)[C@@H](NC(=O)[C@H](CC(C)C)NC(=O)[C@H](Cc1ccccc1)NC(=O)[C@H](CC(N)=O)NC(=O)[C@H](C)NC(=O)[C@H](CC(C)C)NC(=O)[C@H](CCCNC(=N)N)NC(=O)[C@H](CCC(N)=O)NC(=O)[C@@H](NC(=O)[C@H](C)NC(=O)[C@@H]1CSSC[C@H](NC(=O)[C@@H](N)CCCCN)C(=O)N[C@@H](CC(N)=O)C(=O)N[C@@H]([C@@H](C)O)C(=O)N[C@@H](C)C(=O)N[C@@H]([C@@H](C)O)C(=O)N1)[C@@H](C)O)C(C)C)C(=O)N[C@@H](CC(C)C)C(=O)N1CCC[C@H]1C(=O)N1CCC[C@H]1C(=O)N[C@H](C(=O)N[C@@H](CC(N)=O)C(=O)N[C@H](C(=O)NCC(=O)N[C@@H](CO)C(=O)N[C@@H](CC(N)=O)C(=O)N[C@H](C(=O)N[C@@H](Cc1ccc(O)cc1)C(N)=O)[C@@H](C)O)C(C)C)[C@@H](C)O` [Pramlintide], the “Known Toxic Levels” value ([1]; in vivo) is listed as >600 µg/kg/day.
In the case of `COc1cc(S(=O)(=O)[O-])c(C)cc1N=Nc1c(O)ccc2cc(S(=O)(=O)[O-])ccc12.[Na+].[Na+]` [allura red dye, allura red], the “Permeation of dye into gel matrix” value ([2]; control device lacking needles) is reported as “expulsion of the dye over the gel surface” and the “Permeation of dye into gel matrix” value ([2]; device with microneedles, 100-300 microliters) is reported as “enabled permeation of the dye into the gel matrix”.
In the case of Erythropoietin, the “Known Toxic Levels” value ([1]; in vivo) is given as >100,000 units.
For Etanercept, the “Known Toxic Levels” value ([1]; in vivo) is given as >1000 mg/animal.
For Infliximab, the “Known Toxic Levels” value ([1]; no direct toxic effect observed) is given as >20 mg/kg no.
For Rituximab, the “Known Toxic Levels” value ([1]; in vivo) is listed as >5 g/animal.
In the case of insulin aspart, the “Hypoglycemic response (blood glucose versus post-injection time)” value ([3]; colon, 20 units, microneedle prototype, one experiment) is reported as “hypoglycemic response”, the “Hypoglycemic response (blood glucose versus post-injection time)” value ([3]; duodenum, 10 units, Carr-Locke needle, one experiment) is reported as “hypoglycemic response” and the “Time to hypoglycemic response after administration” value ([3]; insulin injections, stomach, duodenum) is reported as 20 to 40 min. The Hypoglycemic response ([3]; insulin release without the use of needles (control, 10 units)) was “did not induce a hypoglycemic (low glucose) response”, the “Hypoglycemic response (blood glucose versus post-injection time)” value ([3]; stomach (transgastric), 10 units, Carr-Locke needle, 3 separate experiments) was “hypoglycemic response” and the “Glucose levels after insulin enema” value ([4]; absence of an abrasion) was “did not decrease”. The “Time to decrement in serum glucose after administration” value ([4]; rectal mucosa with abrasion) was 20 to 30 min and the “Serum glucose level after insulin enema” value ([4]; rectal mucosa with abrasion, baseline glucose 80-82 mg/dL) was 60 mg/dL.
